Values of other authors as cited in PMC7530097 (Chemical communications (Cambridge, England), 2020).

Assays:
[1] = target: Group-III agr subgroup of S. aureus (Staphylococcus aureus, UniProt O33590); settings: read-out: IC50 (95% CI) Group-III; β-lactamase reporter cell assay; ref [6]
[2] = target: Group-II agr subgroup of S. aureus (Staphylococcus aureus, UniProt O33587); settings: read-out: IC50 (95% CI) Group-II; β-lactamase reporter cell assay; ref [6]
AgrC = settings: ref [25]

## AIP-I
[1]
  IC50: 3 nM
[2]
  IC50: 25 nM

## Solonamide B
AgrC
  inhibition of AgrC: competitively inhibit AgrC
